tested on: gastric acid secretion in gastric fistula beagle dogs; assay: Inhibition of Gastric Acid Secretion in Gastric Fistula Beagle Dogs; type: in vivo; details: 3 mg/kg dose; i.d. (intraduodenal); histamine-stimulated secretion, four-hour period

| Structure (SMILES) | Gastric-Fistula Beagle % Inhibition |
| --- | --- |
| [O-][S+](Cc1cccn2ccnc12)c1nc2ccccc2[nH]1 (centres unmarked) [Example 3, 2-[(imidazo[1,2-a]pyridin-8-ylmethyl)sulfinyl]-1H-benzimidazole 1/8 hydrate] | 57% |
| Cc1cn2cccc(C[S+]([O-])c3nc4ccccc4[nH]3)c2n1 (centres unmarked) [Example 5] | 16% |

biological target: T1, (H^+ +K^+)-ATPase (Canis lupus familiaris, UniProt P50996); assay: Inhibition of (H^+ +K^+)-ATPase from Canine Gastric Mucosa; type: biochemical, canine (mongrel dogs); details: canine gastric mucosa microsomes; pH 6.0; 30 min preincubation with compound at 37°; K^+-stimulated minus basal activity
T1 construct: (H^+ +K^+)-ATPase obtained from canine gastric mucosa; from tissue; host or cells: glandular gastric mucosa of mongrel dogs (antral and cardiac regions removed), microsomes from the 15%-30% sucrose interface, lyophilized
T1 sequence (P50996 2-1034 limits assumed): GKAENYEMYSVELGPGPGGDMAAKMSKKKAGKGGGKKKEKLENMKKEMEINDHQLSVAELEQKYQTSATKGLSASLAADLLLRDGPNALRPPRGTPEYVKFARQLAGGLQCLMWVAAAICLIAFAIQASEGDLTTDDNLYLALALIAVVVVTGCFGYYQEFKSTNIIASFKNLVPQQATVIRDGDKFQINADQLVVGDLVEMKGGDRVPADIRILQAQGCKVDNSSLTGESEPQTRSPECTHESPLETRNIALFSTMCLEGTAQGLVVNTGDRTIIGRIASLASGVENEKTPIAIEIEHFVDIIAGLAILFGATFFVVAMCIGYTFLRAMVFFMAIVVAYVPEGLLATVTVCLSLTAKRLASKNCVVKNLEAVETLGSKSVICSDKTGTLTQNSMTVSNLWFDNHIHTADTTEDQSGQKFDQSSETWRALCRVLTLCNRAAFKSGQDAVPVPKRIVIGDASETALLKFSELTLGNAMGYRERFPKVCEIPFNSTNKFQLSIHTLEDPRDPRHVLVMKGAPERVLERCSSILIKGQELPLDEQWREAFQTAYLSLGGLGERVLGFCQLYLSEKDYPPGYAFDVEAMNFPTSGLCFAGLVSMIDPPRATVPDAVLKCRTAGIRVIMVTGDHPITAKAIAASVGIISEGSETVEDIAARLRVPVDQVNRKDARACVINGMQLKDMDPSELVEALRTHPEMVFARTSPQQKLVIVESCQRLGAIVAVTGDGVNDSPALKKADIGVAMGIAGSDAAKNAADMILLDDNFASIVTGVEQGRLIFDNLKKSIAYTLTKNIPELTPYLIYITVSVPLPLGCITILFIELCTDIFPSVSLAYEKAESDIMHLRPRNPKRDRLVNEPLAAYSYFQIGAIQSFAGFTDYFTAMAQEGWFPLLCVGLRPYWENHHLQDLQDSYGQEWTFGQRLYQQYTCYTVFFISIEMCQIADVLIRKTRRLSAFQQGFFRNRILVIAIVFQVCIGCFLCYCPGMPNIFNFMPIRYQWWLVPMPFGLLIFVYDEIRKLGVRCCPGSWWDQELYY
T1 sequence (P33704 whole entry partner): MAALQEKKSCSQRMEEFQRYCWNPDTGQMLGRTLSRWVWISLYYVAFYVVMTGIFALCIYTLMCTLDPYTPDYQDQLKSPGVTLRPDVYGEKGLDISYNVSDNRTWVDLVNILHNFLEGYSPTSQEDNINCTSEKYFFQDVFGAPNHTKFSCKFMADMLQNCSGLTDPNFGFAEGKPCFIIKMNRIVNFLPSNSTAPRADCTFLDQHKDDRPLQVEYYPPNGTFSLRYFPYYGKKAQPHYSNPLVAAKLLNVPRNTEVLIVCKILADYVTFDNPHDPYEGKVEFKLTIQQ
Protocol: Inhibition of (H^+ +K^+)-ATPase from Canine Gastric Mucosa
Mongrel dogs weighing 15 to 25 kilograms were fasted for twenty-four hours, with water provided ad libitum. The animals were anesthetized with pentobarbital and the stomachs were removed. Subsequent tissue manipulations and subcellular fractionations were performed at 0° to 4° C. After the stomachs were cut open and rinsed with tap water, the antral and cardiac regions were removed and the remaining tissue was rinsed three times in saline. The glandular mucosa was removed mechanically, chopped finely in a medium containing 10 mM Tris hydrochloride (pH 7.4) and 250 mM sucrose, and homogenized. The homogenate was centrifuged at 20,000×g for twenty minutes and the pellet discarded. The supernatant was then centrifuged at 150,000×g for ninety minutes and the supernatant discarded. The pellet was resuspended in the Tris-HCl/sucrose medium by homogenization. Part (2 ml) of the resultant microsomal suspension was layered onto a step gradient consisting of 9 ml of 15% sucrose above 12 ml of 30% sucrose, each sucrose solution being buffered with 10 mM Tris hydrochloride (pH 7.4) containing 0.01% sodium azide. The microsomes retained at the 15%-30% sucrose interface, after centrifugation at 250,000×g for sixty minutes, were used as the source of (H^+ +K^+)-ATPase. Microsomal preparations were lyophilized, a process that assured potassium ion permiability, and stored at -10° until used.
(H^+ K^+)-ATPase activity for each test compound was determined, in duplicate, by measuring the release of inorganic phosphate, which was assayed according to the method of J. ChandraRajan and L. Klein. Anal. Biochem., 72, 407-412 (1976). The (H^+ +K^+)-ATPase assay medium consisted of 20 mM Mes-Tris (pH 6.0), 5 mM magnesium chloride, 25 mM sucrose, and 4 mM Tris-ATP with or without 20 mM potassium chloride in a total volume of 2 ml. Microsomal suspensions (20 to 60 mcl, containing about 25 mcg protein) were added to the assay medium, without Tris-ATP, and then preincubated with a test compound for thirty minutes at 37°. The assay was initiated by adding Tris-ATP and the mixture was incubated another thirty minutes at 37°. A 200-mcl aliquot of the assay mixture was then added to 1.4 ml of a solution consisting of 0.1M sodium acetate (pH 4.0) and 10 % sodium dodecylsulfate, followed by the addition of 200 mcl each of 1% ammonium molybdate and 1% ascorbic acid. At least fifteen minutes later, the optical absorbance at 870 nm (which was proportional to inorganic phosphate concentration up to 100 nmoles per tube, as determined by a standard curve) was obtained. Enzyme activity was linear with incubation time.
(H^+ +K^+)-ATPase activity is represented by the difference between the measured activities in the presence of potassium ion (K^+ -stimulated) and in the absence of potassium ion (basal). […] If the IC50 for a test compound could not be determined for the concentration range tested, percent inhibition of (H^+ +K^+)-ATPase was obtained for the compound at 0.1 mM.

| Structure (SMILES) | IC50 |
| --- | --- |
| [O-][S+](Cc1cccn2ccnc12)c1nc2ccccc2[nH]1 (centres unmarked) [Example 3, 2-[(imidazo[1,2-a]pyridin-8-ylmethyl)sulfinyl]-1H-benzimidazole 1/8 hydrate] | 2.7 µM |
| Cc1cn2cccc(C[S+]([O-])c3nc4ccccc4[nH]3)c2n1 (centres unmarked) [Example 5] | 6.7 µM |
| COc1ccc2[nH]c([S+]([O-])Cc3cccn4ccnc34)nc2c1 (centres unmarked) [Example 7, 2-[(imidazo[1,2-a]pyridin-8-ylmethyl)sulfinyl]-5-methoxy-1H-benzimidazole] | 8.5 µM |
| CCOc1ccc2[nH]c([S+]([O-])Cc3cccn4ccnc34)nc2c1 (centres unmarked) [Example 9, 5-ethoxy-2-[(imidazo[1,2-a]pyridin-8-ylmethyl)sulfinyl]-1H-benzimidazole] | 9.2 µM |
| Cc1cccc2[nH]c([S+]([O-])Cc3cccn4ccnc34)nc12 (centres unmarked) [Example 11, 2-[(imidazo[1,2-a]pyridin-8-ylmethyl)sulfinyl]-4-methyl-1H-benzimidazole] | 6.2 µM |
| Cc1ccc2[nH]c([S+]([O-])Cc3cccn4ccnc34)nc2c1 (centres unmarked) [Example 13, 2-[(imidazo[1,2-a]pyridin-8-ylmethyl)sulfinyl]-5-methyl-1H-benzimidazole] | 3.1 µM |
| Cc1cc2nc([S+]([O-])Cc3cccn4ccnc34)[nH]c2cc1C (centres unmarked) [Example 15, 2-[(imidazo[1,2-a]pyridin-8-ylmethyl)sulfinyl]-5,6-dimethyl-1H-benzimidazole hydrate] | 4.8 µM |
| COc1cc2nc([S+]([O-])Cc3cccn4ccnc34)[nH]c2cc1OC (centres unmarked) [Example 17, 2-[(imidazo[1,2-a]pyridin-8-ylmethyl)sulfinyl]-5,6-dimethoxy-1H-benzimidazole] | 69 µM |
| [O-][S+](Cc1cccn2ccnc12)c1nc2cc(Cl)ccc2[nH]1 (centres unmarked) [Example 19, 5-chloro-2-[(imidazo[1,2-a]pyridin-8-ylmethyl)sulfinyl]-1H-benzimidazole] | 5 µM |
| [O-][S+](Cc1cccn2ccnc12)c1nc2cc(C(F)(F)F)ccc2[nH]1 (centres unmarked) [Example 21, 2-[(imidazo[1,2-a]pyridin-8-ylmethyl)sulfinyl]-5-(trifluoromethyl)-1H-benzimidazole] | 3.4 µM |
| Cc1nc2c(C[S+]([O-])c3nc4ccccc4[nH]3)cccn2c1C (centres unmarked) [Example 23, 2-[[(2,3-dimethylimidazo[1,2-a]pyridin-8-yl)methyl]sulfinyl]-1H-benzimidazole] | 6.2 µM |
| Cc1cnc2c(C[S+]([O-])c3nc4ccccc4[nH]3)cccn12 (centres unmarked) [Example 25, 2-[[(3-methylimidazo[1,2-a]pyridin-8-yl)methyl]sulfinyl]-1H-benzimidazole hemihydrate1/2CH2 Cl2] | 4 µM |
| [O-][S+](Cc1cccn2cc(-c3ccccc3)nc12)c1nc2ccccc2[nH]1 (centres unmarked) [Example 28, 2-[[(2-phenylimidazo[1,2-a]pyridin-8-yl)methyl]sulfinyl]-1H-benzimidazole 1/4 hydrate] | > 100 µM |
| [O-][S+](Cc1cccn2c(-c3ccccc3)cnc12)c1nc2ccccc2[nH]1 (centres unmarked) [Example 30, 2-[[(3-phenylimidazo[1,2-a]pyridin-8-yl)methyl]sulfinyl]-1H-benzimidazole hemihydrate] | 9.1 µM |
| O=[N+]([O-])c1ccc(-c2cnc3c(C[S+]([O-])c4nc5ccccc5[nH]4)cccn23)cc1 (centres unmarked) [Example 33, 2-[[[3-(4-nitrophenyl)imidazo[1,2-a]pyridin-8-yl]methyl]sulfinyl]-1H-benzimidazole 1/4 hydrate] | 17.5 µM |
| [O-][S+](Cc1cccn2c(-c3cccc(C(F)(F)F)c3)cnc12)c1nc2ccccc2[nH]1 (centres unmarked) [Example 36, 2-[[[3-[3-(trifluoromethyl)phenyl]imidazo[1,2-a]pyridin-8-yl]methyl]sulfinyl]-1H-benzimidazole] | 6.9 µM |
| Cc1ccc2[nH]c([S+]([O-])Cc3cccn4c(-c5cccc(C(F)(F)F)c5)cnc34)nc2c1 (centres unmarked) [Example 39, 5-methyl-2-[[[3-[3-(trifluoromethyl)phenyl]imidazo[1,2-a]pyridin-8-yl]methyl]sulfinyl]-1H-benzimidazole] | 7.2 µM |
| [O-][S+](Cc1cccn2c(-c3cccc(C(F)(F)F)c3)cnc12)c1nc2cc(Cl)ccc2[nH]1 (centres unmarked) [Example 42, 5-chloro-2-[[[3-[3-(trifluoromethyl)phenyl]imidazo[1,2-a]pyridin-8-yl]methyl]sulfinyl]-1H-benzimidazole] | 15.2 µM |
| [O-][S+](Cc1cccn2c(-c3ccc(C(F)(F)F)cc3)cnc12)c1nc2ccccc2[nH]1 (centres unmarked) [Example 45, 2-[[[3-[4-(trifluoromethyl)phenyl]imidazo[1,2-a]pyridin-8-yl]methyl]sulfinyl]-1H-benzimidazole] | 7.4 µM |
| [O-][S+](Cc1cccn2c(-c3ccc(C(F)(F)F)cc3)cnc12)c1nc2cc(Cl)ccc2[nH]1 (centres unmarked) [Example 47, 5-chloro-2-[[[3-[4-(trifluoromethyl)phenyl]imidazo[1,2-a]pyridin-8-yl]methyl]sulfinyl]-1H-benzimidazole] | 13 µM |
| COC(=O)c1ccc(-c2cnc3c(C[S+]([O-])c4nc5ccccc5[nH]4)cccn23)cc1 (centres unmarked) [Example 49, methyl 4-[8-[(1H-benzimidazol-2-ylsulfinyl)methyl]imidazo[1,2-a]pyridin-3-yl]benzoate hydrate] | 7.8 µM |
| [O-][S+](Cc1cccn2c(-c3ccc(Cl)cc3)cnc12)c1nc2ccccc2[nH]1 (centres unmarked) [Example 52, 2-[[[3-(4-chlorophenyl)imidazo[1,2-a]pyridin-8-yl]methyl]sulfinyl]-1H-benzimidazole] | 5.5 µM |
| Cc1ccc(-c2cnc3c(C[S+]([O-])c4nc5ccccc5[nH]4)cccn23)cc1 (centres unmarked) [Example 54, 2-[[[3-(4-methylphenyl)imidazo[1,2-a]pyridin-8-yl]methyl]sulfinyl]-1H-benzimidazole] | 3.2 µM |
| [O-][S+](Cc1cccc2nccn12)c1nc2ccccc2[nH]1 (centres unmarked) [Example 56, 2-[(imidazo[1,2-a]pyridin-5-ylmethyl)sulfinyl]-1H-benzimidazole] | > 100 µM |
